Where a name gives a salt, the structure may show the parent alone.
Tested on: ⅚ nephrectomized rats
Assay: Effect on ⅚ nephrectomized rat (progressive renal failure model)
Assay type: in vivo
Details: for death due to renal failure, compared with control group (FIG. 1): until week 15 after initiation of drug administration; for glomerulosclerosis score compared with control group (in words) / Glomerulosclerosis (score): week 15 after initiation of drug administration; for Glomerulosclerosis (score): average score of 50 glomeruli per renal tissue piece, male SD rats
From the text: Fifty-one male SD rats (seven weeks old, purchased from Japan SLC, Inc.) were anesthetized with pentobarbital, and the left kidney of each rat was exposed. Under a stereoscopic microscope, two of the left renal artery branches (generally, one renal artery is separated into three branches) were ligated and one central branch was left intact. When a renal artery branch is ligated, a portion controlled by the branch falls into ischemia, and such an ischemic renal portion can be visually detected. One week later, the right kidney was removed. That is to say, ⅚ of the kidneys was removed. Four weeks after surgery, blood was collected from each rat under unanesthetized conditions, and plasma creatinine level (Pcr) was measured. Pcr is a blood parameter indicative of renal function, and an increase in Pcr indicates impairment of renal function. After Pcr measurement, rats with considerably impaired renal function and rats with no impairment of renal function were eliminated, to thereby select 36 rats employed for the test.
Subsequently, on the basis of the thus-obtained Pcr data, these rats were divided into four groups in such a manner that the value of Pcr was averaged out among each group: control group (i.e., no drug administration group) (N=9); pyridoxamine dihydrochloride administration group (administered in the form of aqueous solution (1.5 g/L)) (N=9); candesartan cilexetil administration group ((1 mg/kg) administered orally once a day) (N=9); and combined administration group (pyridoxamine dihydrochloride administered in the form of aqueous solution (1.5 g/L), and candesartan cilexetil (1 mg/kg) administered orally once a day) (N=9). In addition to these four groups, one normal rat group non-surgical group, was provided.
Pyridoxamine dihydrochloride was dissolved in purified water, and the aqueous solution was available to the rats ad libitum. The daily dose of pyridoxamine dihydrochloride was about 100 mg/kg Candesartan cilexetil was suspended in 0.5% methyl cellulose sodium solution upon use, and the suspension was repeatedly orally administered.
Drug administration was initiated at week five after surgery (Pcr was about 1.5 mg/dL at the start of drug administration; i.e., renal function had already been impaired).
After initiation of drug administration, the number of surviving rats was recorded every day. Per was measured at week two, week four, week seven, week 11, and week 15 after initiation of drug administration. Urinary total protein excretion was measured at week four, week seven, week 11 and week 15 after initiation of drug administration (each measurement was performed after 18-hour urine accumulation). In addition, at week 15 after initiation of drug administration, systolic blood pressure was measured under unanesthetized conditions by means of a noninvasive blood pressure measuring apparatus.
At week 15 after initiation of drug administration, the renal tissue of each rat was observed, and the degree of glomerulosclerosis was evaluated on the basis of the below-described score. […] As used herein, the term “score” refers to the degree of glomerulosclerosis; i.e., the degree of hyperplasia of mesangial matrix in glomeruli. […] Score 0 was assigned to a glomerulus similar to that of rats in the normal rat group; score 1 was assigned to a glomerulus in which the area of mesangial matrix accounts for less than 25%; score 2 was assigned to a glomerulus in which the area of mesangial matrix accounts for 25% or more and less than 50%; score 3 was assigned to a glomerulus in which the area of mesangial matrix accounts for 50% or more and less than […]; and score 4 was assigned to a glomerulus in which the area of mesangial matrix accounts for 75% or more. The average of the thus-obtained scores of the glomeruli was employed for evaluation of glomerulosclerosis.

| Structure (SMILES) | death due to renal failure, compared with control group (FIG. 1) | glomerulosclerosis score compared with control group (in words) | Glomerulosclerosis (score) |
| --- | --- | --- | --- |
| CCOc1nc2cccc(C(=O)OC(C)OC(=O)OC3CCCCC3)c2n1Cc1ccc(-c2ccccc2-c2nnn[nH]2)cc1 (stereo not drawn) [Candesartan cilexetil, 1-(cyclohexyloxycarbonyloxy)ethyl 2-ethoxy-1-[2′-(1H-tetrazol-5-yl)biphenyl-4-ylmethyl]-1H-benzimidazole-7-carboxylate] | tendency for suppression of death due to renal failure was observed | reduction in score was observed | 1.52 ± 0.45 score |
| Cc1ncc(CO)c(CN)c1O [Pyridoxamine dihydrochloride, 4-(aminomethyl)-5-hydroxy-6-methyl-3-pyridinemethanol] | tendency for suppression of death due to renal failure was observed | no reduction in score was observed | 1.93 ± 0.35 score |

Source: patent publication US20080004320A1, “Remedy for Glomerular Disease” (Kowa Co., Ltd., priority 2004, published 2008)
